Read-outs that look alike come from different tables or passages of the source. Bounds are passed on as bounds.

Experimental findings from patent US20230113037A1 (Bayer Aktiengesellschaft, priority 2019, published 2023) are described below.

For the assay, the target named is T1, AHR (Mus musculus, UniProt P30561).
T1 sequence (P30561 1-848 P471L/N533S/M589L): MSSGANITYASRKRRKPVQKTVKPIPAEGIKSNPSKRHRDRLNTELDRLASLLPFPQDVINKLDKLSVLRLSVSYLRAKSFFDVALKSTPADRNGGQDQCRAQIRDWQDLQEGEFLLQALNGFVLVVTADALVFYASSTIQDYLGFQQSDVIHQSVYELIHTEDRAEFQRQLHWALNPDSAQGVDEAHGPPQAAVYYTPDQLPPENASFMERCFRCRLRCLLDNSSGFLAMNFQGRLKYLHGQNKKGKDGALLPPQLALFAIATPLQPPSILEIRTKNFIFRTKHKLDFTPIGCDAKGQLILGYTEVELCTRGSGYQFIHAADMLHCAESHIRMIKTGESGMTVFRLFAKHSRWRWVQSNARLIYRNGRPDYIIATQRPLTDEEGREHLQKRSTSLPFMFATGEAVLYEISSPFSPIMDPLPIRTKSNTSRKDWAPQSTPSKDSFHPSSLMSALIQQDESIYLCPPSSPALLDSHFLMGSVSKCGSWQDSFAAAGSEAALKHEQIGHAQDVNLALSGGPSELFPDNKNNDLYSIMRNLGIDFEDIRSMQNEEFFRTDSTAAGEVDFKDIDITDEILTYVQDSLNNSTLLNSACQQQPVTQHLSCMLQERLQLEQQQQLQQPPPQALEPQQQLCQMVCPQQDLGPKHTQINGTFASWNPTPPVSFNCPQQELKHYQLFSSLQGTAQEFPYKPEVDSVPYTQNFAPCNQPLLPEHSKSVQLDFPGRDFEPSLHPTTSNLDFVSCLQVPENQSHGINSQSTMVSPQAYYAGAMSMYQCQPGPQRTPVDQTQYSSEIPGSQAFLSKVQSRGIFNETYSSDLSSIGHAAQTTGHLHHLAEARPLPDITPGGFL
Put plainly: In vitro assay 3: antagonism in mouse cell line (AHR transactivation, firefly luciferase reporter, kynurenic acid prestimulated). In kind it is cell-based. The method, then:
Examples were tested in selected biological assays one or more times. When tested more than once, data are reported as either average values or as median values, wherein • the average value, also referred to as the arithmetic mean value, represents the sum of the values obtained divided by the number of times tested, and • the median value represents the middle number of the group of values when ranked in ascending or descending order. If the number of values in the data set is odd, the median is the middle value. If the number of values in the data set is even, the median is the arithmetic mean of the two middle values.
In addition the cells were stably transfected with an AHR inducible firefly luciferase reporter gene construct that carried AHR-binding sites (DRE) in its promoter. Kynurenic acid is an endogenous AHR activating ligand and was used to prestimulate test cells prior to testing the antagonistic properties of compounds.
As positive inhibition control cells without addition of kynurenic acid were incubated. Normalization was done by positive and negative controls.
Firefly luciferase activity was determined by the SteadyGlo Luciferase Assay System (Promega, #E2550).
For orientation: In a reporter assay the amount or activity of a reporter protein is the signal.

The mark [1] stands for this setting: Hepa 1c1c7 cells, 200 μM kynurenic acid, 20 hours, firefly luciferase reporter, read-out: AHR Antagonism Mouse IC50.
Setting [2] is: mouse Hepa 1c1c7 cells, 200 μM kynurenic acid, 20 hours, read-out: AHR Antagonism Mouse IC50.

As usually defined, the IC50 is the concentration that inhibits the measured activity by half. On to `C[C@@H](Nc1nc2ccccc2c2nc(-c3ccccc3OC(F)(F)F)nn12)C(=O)NCCN(C)C` [Example 792, N-[2-(dimethylamino)ethyl]-N^2-{2-[2-(trifluoromethoxy)phenyl][1,2,4]triazolo[1,5-c]quinazolin-5-yl}-D-alaninamide], for which the half-maximal inhibitory concentration (IC50) under setting [1] was 28.7 nM.

Consider `O=C1NCCNCC1Nc1nc2cccc(Cl)c2c2nc(-c3ccc(F)cc3)nn12` (single isomer, unassigned) [Example 299, 6-{[10-chloro-2-(4-fluorophenyl)[1,2,4]triazolo[1,5-c]quinazolin-5-yl]amino}-1,4-diazepan-5-one], for which, under setting [2], the IC50 was 37.3 nM.

For `O=C1NCCNC[C@@H]1Nc1nc2ccccc2c2nc(-c3ccc(F)cc3)nn12` [Example 965, (6S)-6-{[2-(4-fluorophenyl)[1,2,4]triazolo[1,5-c]quinazolin-5-yl]amino}-1,4-diazepan-5-one], under setting [1], the IC50 was determined as 12 nM.

As to `O=C1NCCNC[C@@H]1Nc1nc2c(Br)cccc2c2nc(-c3ccc(F)cc3)nn12` [Example 973, (6S)-6-{[7-bromo-2-(4-fluorophenyl)[1,2,4]triazolo[1,5-c]quinazolin-5-yl]amino}-1,4-diazepan-5-one], the IC50 under setting [1] turned out to be 8.28 nM.

As for `O=C1NCCCC[C@H]1Nc1nc2c(C(F)(F)F)cccc2c2nc(-c3ccc(Cl)cc3OC(F)(F)F)nn12` [Example 672, (3R)-3-({2-[4-chloro-2-(trifluoromethoxy)phenyl]-7-(trifluoromethyl)[1,2,4]triazolo[1,5-c]quinazolin-5-yl}amino)azepan-2-one], the IC50 under setting [2] was determined as 4.35 nM.

Consider `O=C1NCCCC[C@@H]1Nc1nc2c(Br)cccc2c2nc(-c3ccc(F)cc3)nn12` [Example 210, (3S)-3-{[7-bromo-2-(4-fluorophenyl)[1,2,4]triazolo[1,5-c]quinazolin-5-yl]amino}azepan-2-one], for which, under setting [2], the IC50 was determined as 5.01 nM.

Regarding `N#Cc1ccc(-c2nc3c4cccc(C(F)(F)F)c4nc(N[C@@H]4CCCCNC4=O)n3n2)cc1` [Example 671, 4-[5-{[(3R)-2-oxoazepan-3-yl]amino}-7-(trifluoromethyl)[1,2,4]triazolo[1,5-c]quinazolin-2-yl]benzonitrile], the IC50 under setting [2] was 0.744 nM.

With `O=C1NCCCC[C@@H]1Nc1nc2ccccc2c2nc(-c3ccc(Cl)cc3)nn12` [Example 7, (3S)-3-{[2-(4-chlorophenyl)[1,2,4]triazolo[1,5-c]quinazolin-5-yl]amino}azepan-2-one], the IC50 under setting [2] came to 2.44 nM.

As for `CC[C@H](Nc1nc2ccccc2c2nc(-c3ccc(Cl)cc3OC(F)F)nn12)C(N)=O` [Example 532, (2S)-2-({2-[4-chloro-2-(difluoromethoxy)phenyl][1,2,4]triazolo[1,5-c]quinazolin-5-yl}amino)butanamide], the IC50 under setting [2] stood at 10.6 nM.

In the case of `CSc1ccc(-c2nc3c4ccccc4nc(N[C@@H]4CNCCNC4=O)n3n2)cc1` [Example 256, (6R)-6-({2-[4-(methylsulfanyl)phenyl][1,2,4]triazolo[1,5-c]quinazolin-5-yl}amino)-1,4-diazepan-5-one], under setting [2], the IC50 was 6.94 nM.

Take `O=C1NCCCC[C@H]1Nc1nc2c(Br)cccc2c2nc(-c3cnn(C(F)F)c3)nn12` [Example 827, (3R)-3-({7-bromo-2-[1-(difluoromethyl)-1H-pyrazol-4-yl][1,2,4]triazolo[1,5-c]quinazolin-5-yl}amino)azepan-2-one]: under setting [1], the IC50 is 0.409 nM.

In the case of `O=C1NCCCC[C@H]1Nc1nc2cccc(Cl)c2c2nc(-c3ccc(F)cc3)nn12` [Example 170, (3R)-3-{[10-chloro-2-(4-fluorophenyl)[1,2,4]triazolo[1,5-c]quinazolin-5-yl]amino}azepan-2-one], the IC50 under setting [2] came to 0.584 nM.

`CCCNC(=O)[C@@H](C)Nc1nc2ccccc2c2nc(-c3cc(Cl)ccc3OC(F)(F)F)nn12` [Example 502, N^2-{2-[5-chloro-2-(trifluoromethoxy)phenyl][1,2,4]triazolo[1,5-c]quinazolin-5-yl}-N-propyl-D-alaninamide]: the IC50 under setting [2] amounted to 196 nM.

With `COc1ccc(-c2nc3c4ccccc4nc(NC4CCCNC4=O)n3n2)cc1` (stereo not drawn) [Example 28, 3-{[2-(4-methoxyphenyl)[1,2,4]triazolo[1,5-c]quinazolin-5-yl]amino}piperidin-2-one], the IC50 under setting [2] was determined as 6.56 nM.

Consider `C[C@@H](Nc1nc2c(Br)cccc2c2nc(-c3cnn(C)c3)nn12)C(=O)NCCCN(C)C` [Example 810, N^2-[7-bromo-2-(1-methyl-1H-pyrazol-4-yl)[1,2,4]triazolo[1,5-c]quinazolin-5-yl]-N-[3-(dimethylamino)propyl]-D-alaninamide], for which the IC50 under setting [1] amounted to 771 nM.

`O=C1NCCNC[C@H]1Nc1nc2c(Br)cccc2c2nc(-c3ccc(Cl)cc3)nn12` [Example 977, (6R)-6-{[7-bromo-2-(4-chlorophenyl)[1,2,4]triazolo[1,5-c]quinazolin-5-yl]amino}-1,4-diazepan-5-one]: the IC50 under setting [1] turned out to be 0.41 nM.

As for `Cn1cc(-c2nc3c4cccc(C(F)(F)F)c4nc(NC4C(=O)NCC4(C)C)n3n2)cn1` (single isomer, unassigned; (+)) [Example 730, (+)-4,4-dimethyl-3-{[2-(1-methyl-1H-pyrazol-4-yl)-7-(trifluoromethyl)[1,2,4]triazolo[1,5-c]quinazolin-5-yl]amino}pyrrolidin-2-one], the IC50 under setting [2] is > 20000 nM.

On to `O=C1NCCCC[C@@H]1Nc1nc2ccccc2c2nc(-c3cc(C(F)(F)F)ccn3)nn12` [Example 364], for which the IC50 (read-out: AHR Antagonism Mouse IC50, mouse Hepa 1c1c7 cells, 200 μM kynurenic acid, 20 hours) came out at 247 nM.

In the case of `O=C1NCCNC[C@H]1Nc1nc2c(Br)cccc2c2nc(-c3ccc(F)cc3)nn12` [Example 269, (6R)-6-{[7-bromo-2-(4-fluorophenyl)[1,2,4]triazolo[1,5-c]quinazolin-5-yl]amino}-1,4-diazepan-5-one], the IC50 under setting [2] is 1.2 nM.

For `O=C1NCCNC[C@@H]1Nc1nc2c(Cl)cccc2c2nc(-c3ccc(F)cc3)nn12` [Example 964, (6S)-6-{[7-chloro-2-(4-fluorophenyl)[1,2,4]triazolo[1,5-c]quinazolin-5-yl]amino}-1,4-diazepan-5-one], the IC50 under setting [1] was 4.6 nM.

With `COc1ccc(-c2nc3c4ccccc4nc(N[C@H](CC(C)C)C(N)=O)n3n2)cc1` [Example 27, N^2-[2-(4-methoxyphenyl)[1,2,4]triazolo[1,5-c]quinazolin-5-yl]-D-leucinamide], the IC50 under setting [2] was determined as 9.69 nM.

As for `COc1ccc(-c2nc3c4cccc(C(F)(F)F)c4nc(N[C@H]4CCCCNC4=O)n3n2)cc1` [Example 582, (3S)-3-{[2-(4-methoxyphenyl)-7-(trifluoromethyl)[1,2,4]triazolo[1,5-c]quinazolin-5-yl]amino}azepan-2-one], the concentration for half-maximal inhibition (IC50) under setting [2] worked out at 44.1 nM.

With `O=C1NCCCC[C@@H]1Nc1nc2c(Br)cccc2c2nc(-c3cccc(F)c3)nn12` [Example 209, (3S)-3-{[7-bromo-2-(3-fluorophenyl)[1,2,4]triazolo[1,5-c]quinazolin-5-yl]amino}azepan-2-one], the IC50 under setting [2] was 15.5 nM.

Turning to `O=C1NCCNCC1Nc1nc2cccc(Cl)c2c2nc(-c3ccc(F)cc3)nn12` (stereo not drawn) [Example 293, 6-{[10-chloro-2-(4-fluorophenyl)[1,2,4]triazolo[1,5-c]quinazolin-5-yl]amino}-1,4-diazepan-5-one], the IC50 under setting [2] amounted to 56.1 nM.

As to `COc1ccc(-c2nc3c4ccccc4nc(N[C@H](C)C(=O)O)n3n2)cc1` [Example 658, N-[2-(4-methoxyphenyl)[1,2,4]triazolo[1,5-c]quinazolin-5-yl]-D-alanine], under setting [2], the IC50 was 450 nM.

As to `COc1ccc(-c2nc3c4cc(C)ccc4nc(N[C@@H]4CNCCNC4=O)n3n2)cc1` [Example 280, (6R)-6-{[2-(4-methoxyphenyl)-9-methyl[1,2,4]triazolo[1,5-c]quinazolin-5-yl]amino}-1,4-diazepan-5-one], the IC50 under setting [2] was 33.3 nM.

Consider `O=C1NCCC[C@H]1Nc1nc2ccccc2c2nc(-c3ccc(OC(F)(F)F)cc3)nn12` [Example 332, (3R)-3-({2-[4-(trifluoromethoxy)phenyl][1,2,4]triazolo[1,5-c]quinazolin-5-yl}amino)piperidin-2-one], for which the IC50 under setting [2] came out at 6.04 nM.
